# Reference: paper PMC6168434 (European journal of medicinal chemistry, 2018)
# Key:
# cancer cells = assay: Western blot and flow cytometry analysis of treated cancer cells; assay type: cell-based; details: Figure S4
# MCF7 = details: MCF7, relative to CysB; cited from earlier work
# hcCP β5 in MCF7 cells = assay: Cellular infiltration: β5 inhibition in intact versus lysed MCF7 cells; assay type: cell-based, human; details: one hour treatment, relative to 1
# [1] = target: human immunoproteasome hiβ5 (Homo sapiens, UniProt P20618+P28062); assay: Purified human immunoproteasome β5; assay type: biochemical; details: purified human immunoproteasomes 8 μg/mL, Suc-LLVY-AMC
# [2] = target: yeast 20S proteasome (yCP) yβ5 (Saccharomyces cerevisiae, UniProt P23724+P30656); assay: Purified yeast proteasome inhibition, yβ5; assay type: biochemical
SMILES,apoptosis (flow cytometry) (cancer cells),cell cycle (flow cytometry) (cancer cells),ubiquitinated proteins (Western blot) (cancer cells),times more cytotoxic than CysB (MCF7),times more capable of crossing the cell membrane than 1 (hcCP β5 in MCF7 cells),isoform preference hiβ5 versus yβ5 [1],fold decreased IC50 for yβ5 versus yβ1 [2] [fold]
CC(C)[C@H](NC(=O)[C@@H]1OC(=O)[C@H]1C(C)C)C(=O)N[C@H](C(=O)OCc1ccccc1)C(C)C [Compound 1],induced apoptosis,arrested cells in the G2/M phase,accumulation of ubiquitinated proteins,over 10 times,,,
"CC[C@H](C)[C@@H]1C(=O)O[C@H]1C(=O)N[C@H](C(=O)N[C@H](C(=O)OCc1ccccc1)C(C)C)C(C)C [Compound 2, benzyl((2R,3S)-3-((S)-sec-butyl)-4-oxooxetane-2-carbonyl)-L-valyl-L-valinate]",induced apoptosis,arrested cells in the G2/M phase,accumulation of ubiquitinated proteins,,approximately 10 times,slight preference for hiβ5,
"CC[C@H](C)[C@@H]1C(=O)O[C@H]1C(=O)N[C@H](C(=O)N[C@@H](COCc1ccccc1)C(=O)OCc1ccccc1)C(C)C [Compound 5k, benzylO-benzyl-N-(((2R,3S)-3-((S)-sec-butyl)-4-oxooxetane-2-carbonyl)-L-valyl)-L-serinate]",,,,,,slight preference for hiβ5,
"CC(C)[C@H](NC(=O)[C@@H](NC(=O)[C@@H]1OC(=O)[C@H]1C(C)C)C(C)C)C(=O)O [Cystargolide B, reference compound]",,,,,,,50
